Laboratory results taken from patent publication US6630615B1, “Defense-related signaling genes and methods of use” (Pioneer Hi-Bred International, Inc., priority 1999, dated 2003).
“Also recorded” adds a separate entry of the source.

The compounds below were run on sunflower NCE gene expression (assay: Northern blot analysis of NCE gene transcript levels under different chemical treatments). Conditions: six-week-old SMF3 sunflower plants sprayed with 5 mM oxalic acid, 5 mM H2O2, 5 mM salicylic acid or 45 μM jasmonic acid (0.1% ethanol); leaf samples at 0, 6, 12, 24 hours.
Format: in vivo
Method: FIG. 4 depicts the results of a Northern blot analysis of NCE gene transcript levels under different chemical treatments. Six-week-old sunflower plants were sprayed with oxalic acid (OA) (5 mM), H2O2 (5 mM), salicylic acid (SA) (5 mM), and jasmonic acid (JA) (45 μM in 0.1% ethanol). The leaf samples were collected at 0, 6, 12, and 24 hours after the applications and immediately frozen in liquid nitrogen. Twenty μg of total RNA was loaded in each sample lane. (CK, control)
For fungal infection and chemical treatments, SMF3 sunflower plants were planted in four-inch pots and grown in greenhouse for the first four weeks. After transfer to the growth chamber, the plants were maintained under 12-hour photoperiod at 22° C. with an 80% relative humidity. Six-week old plants were inoculated with Sclerotinid-infected carrot plugs or sprayed with an aqueous solution of either 5 mM oxalic acid, 5 mM H2O2, 5 mM salicylic acid or 45 μM jasmonic acid (with 0.1% ethanol). For each plant, three petioles were inoculated and wrapped with a 1 inch×2 inch piece of parafilm. Plant tissue samples were harvested at different time points and immediately frozen in liquid nitrogen and then stored at −80° C.
Plant materials were ground in liquid nitrogen, and total RNA was extracted by the Tri-Reagent method. RNA profiling was conducted using CuraGen Corporation's proprietary method sold under the trademark GENECALLING. See U.S. Pat. No. 5,871,697, herein incorporated by reference. Profiles of RNA samples prepared from combined leaf and stem tissues of six-week-old oxox sunflower plants were compared to profiles of similar RNA samples from of six-week-old SMF3 plants.
Total RNA (20 μg) was separated in a 1% agarose gel containing formaldehyde. Ethidium bromide was included to verify equal loading of RNA. After transfer onto Hybond N+membrane, the blots were hybridized with ^32P-labeled NCE, AAP, or GRP cDNA probes. As a control, a duplicate blot was hybridized with a probe complementary to 18S rRNA. Hybridization and washing conditions were performed according to Church et al. ((1984) Proc. Natl. Acad. Sci. USA 81:1991-1995).

| SMILES | NCE gene expression (transcript level, Northern blot) |
| --- | --- |
| OO [H2O2] | negatively regulated; also recorded: down-regulated |
| CC/C=C\C[C@H]1C(=O)CC[C@@H]1CC(=O)O [jasmonic acid] | negatively regulated; also recorded: down-regulated |
| O=C(O)C(=O)O [oxalic acid] | negatively regulated |
| O=C(O)c1ccccc1O [salicylic acid] | negatively regulated; also recorded: down-regulated |
